From patent US11944626B2, “Small molecule inhibitors of ALDH and uses thereof” (The Regents of the University of Michigan, priority 2016, dated 2024) come the findings set out here.

What all share (test): Inhibition of ALDH isoenzymes (NAD(P)H formation at 340 nm, purified recombinant enzyme)
Holding throughout (type): biochemical

For one experiment, the target named is T1, ALDH1A1 (Homo sapiens, UniProt P00352).
T1 sequence (P00352 1-501): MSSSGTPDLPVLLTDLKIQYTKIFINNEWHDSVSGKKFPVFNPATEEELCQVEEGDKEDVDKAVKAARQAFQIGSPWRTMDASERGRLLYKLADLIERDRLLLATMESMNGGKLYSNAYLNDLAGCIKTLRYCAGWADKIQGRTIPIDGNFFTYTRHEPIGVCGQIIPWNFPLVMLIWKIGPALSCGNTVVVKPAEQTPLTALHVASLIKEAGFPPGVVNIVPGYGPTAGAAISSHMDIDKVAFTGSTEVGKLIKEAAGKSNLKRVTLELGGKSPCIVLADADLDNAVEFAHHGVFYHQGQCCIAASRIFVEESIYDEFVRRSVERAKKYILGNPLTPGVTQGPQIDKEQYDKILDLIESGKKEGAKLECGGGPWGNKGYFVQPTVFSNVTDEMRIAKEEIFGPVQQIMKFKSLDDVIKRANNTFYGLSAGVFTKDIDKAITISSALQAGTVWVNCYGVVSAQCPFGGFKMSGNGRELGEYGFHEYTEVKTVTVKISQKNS
The settings on record: for remaining activity at 20 µM: compound at 20 μM, read-out: ALDH1A1 % Control at 20 μM; for IC50: 100-200 nM enzyme, 200 μM NAD+, 100 μM propionaldehyde, pH 7.5, 25° C.; for ALDH1A1: compound is a substrate: result in words in place of IC50.

In the next experiment the target is T2, ALDH1A3 (Homo sapiens, UniProt P47895).
T2 sequence (P47895 1-512): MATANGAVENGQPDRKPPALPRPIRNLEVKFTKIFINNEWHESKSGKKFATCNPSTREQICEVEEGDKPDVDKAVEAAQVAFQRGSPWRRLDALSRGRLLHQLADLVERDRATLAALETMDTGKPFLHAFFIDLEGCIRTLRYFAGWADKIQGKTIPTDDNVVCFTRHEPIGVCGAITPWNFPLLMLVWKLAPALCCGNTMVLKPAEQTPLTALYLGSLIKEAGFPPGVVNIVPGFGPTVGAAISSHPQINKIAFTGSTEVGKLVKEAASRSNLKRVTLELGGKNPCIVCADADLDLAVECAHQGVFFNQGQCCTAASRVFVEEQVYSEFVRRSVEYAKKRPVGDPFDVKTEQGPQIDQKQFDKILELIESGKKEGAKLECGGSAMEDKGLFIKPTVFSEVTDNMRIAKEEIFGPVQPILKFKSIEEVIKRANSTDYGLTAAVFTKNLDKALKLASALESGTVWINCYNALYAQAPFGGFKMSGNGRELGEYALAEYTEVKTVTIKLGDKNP
Conditions: for remaining activity at 20 µM: compound at 20 μM, read-out: ALDH1A3 % Control at 20 μM; for IC50: 100-200 nM enzyme, 200 μM NAD+, 100 μM propionaldehyde, pH 7.5, 25° C.

Another experiment has as its target T3, ALDH2 (Homo sapiens, UniProt P05091).
T3 sequence (P05091 18-517): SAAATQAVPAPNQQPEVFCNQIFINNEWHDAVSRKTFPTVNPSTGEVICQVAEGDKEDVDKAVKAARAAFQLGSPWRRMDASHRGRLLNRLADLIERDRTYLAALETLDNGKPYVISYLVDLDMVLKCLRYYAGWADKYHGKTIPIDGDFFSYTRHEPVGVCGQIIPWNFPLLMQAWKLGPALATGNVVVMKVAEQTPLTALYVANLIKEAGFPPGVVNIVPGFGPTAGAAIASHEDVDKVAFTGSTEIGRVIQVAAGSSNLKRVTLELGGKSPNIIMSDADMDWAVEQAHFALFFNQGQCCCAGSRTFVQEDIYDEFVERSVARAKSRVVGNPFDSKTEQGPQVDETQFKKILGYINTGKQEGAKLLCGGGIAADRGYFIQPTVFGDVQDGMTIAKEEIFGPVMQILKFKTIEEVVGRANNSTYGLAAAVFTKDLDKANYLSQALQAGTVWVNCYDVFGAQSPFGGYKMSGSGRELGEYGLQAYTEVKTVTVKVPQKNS
The settings on record: compound at 20 μM; read-out: ALDH2 % Control at 20 μM.

The target in a further experiment is T4, ALDH1A2 (Homo sapiens, UniProt O94788).
T4 sequence (O94788 1-518): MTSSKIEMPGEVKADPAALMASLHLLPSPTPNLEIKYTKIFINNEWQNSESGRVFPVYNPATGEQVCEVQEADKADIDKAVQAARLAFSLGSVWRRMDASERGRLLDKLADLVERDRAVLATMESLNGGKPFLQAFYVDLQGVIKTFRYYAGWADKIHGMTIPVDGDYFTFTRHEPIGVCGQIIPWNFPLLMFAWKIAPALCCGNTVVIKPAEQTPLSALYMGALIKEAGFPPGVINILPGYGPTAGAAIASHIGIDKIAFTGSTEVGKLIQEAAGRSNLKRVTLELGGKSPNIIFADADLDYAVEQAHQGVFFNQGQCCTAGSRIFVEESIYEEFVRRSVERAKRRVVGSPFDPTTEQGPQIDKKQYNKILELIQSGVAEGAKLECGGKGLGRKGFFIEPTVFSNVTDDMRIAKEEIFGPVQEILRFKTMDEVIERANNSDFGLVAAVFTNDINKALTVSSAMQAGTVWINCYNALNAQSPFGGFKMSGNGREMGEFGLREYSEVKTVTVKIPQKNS
Conditions: for remaining activity at 20 µM: compound at 20 μM, read-out: ALDH1A2 % Control at 20 μM; for IC50: 100-200 nM enzyme, 200 μM NAD+, 100 μM propionaldehyde, pH 7.5, 25° C.; for ALDH1A2: compound is a substrate: result in words.

SMILES strings stand for the structures. Where only a bound is given, the exact number is not on record here.
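For ALDH2 % Control at 20 μM in this document: run at 25 °C, started by adding substrate after 2 min preincubation, with 100-200 nM ALDH2, 200 µM NAD+, 100 µM propionaldehyde, 1% DMSO in BES buffer pH 7.5.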

As to `CC(Sc1nc2c(cnn2C2COC2)c(=O)n1-c1ccccc1)c1ccccc1` (stereo not shown) [Example 73, 1-(oxetan-3-yl)-5-phenyl-6-((1-phenylethyl)thio)-1H-pyrazolo[3,4-d]pyrimidin-4(5H)-one], the remaining activity at 20 µM was 3% on ALDH1A1, 1% on ALDH1A3, 95% at ALDH2 and 0% at ALDH1A2.
On to `COc1cccc(CSc2nc3c(cnn3C)c(=O)n2-c2ccccc2)c1` [Example 54, 6-((3-methoxybenzyl)thio)-1-methyl-5-phenyl-1H-pyrazolo[3,4-d]pyrimidin-4(5H)-one], for which the results for the IC50 at ALDH1A1, on ALDH1A3 and at ALDH1A2 were 281 nM, 207 nM and 265 nM, respectively. In addition, the remaining activity at 20 µM at ALDH2 amounted to 88%.
On the same counts, the results for `Cn1ncc2c(=O)n(-c3ccccc3)c(SCC(=O)c3ccccc3)nc21` [Example 52, 1-methyl-6-((2-oxo-2-phenylethyl)thio)-5-phenyl-1H-pyrazolo[3,4-d]pyrimidin-4(5H)-one] are 547 nM, 95 nM, 130 nM and 91%.
Take `Cn1ncc2c(=O)n(-c3ccccc3)c(SCc3ccc(C=O)cc3)nc21` [Example 59, 4-(((1-methyl-4-oxo-5-phenyl-4,5-dihydro-1H-pyrazolo[3,4-d]pyrimidin-6-yl)thio)methyl)benzaldehyde]: the “ALDH1A1: compound is a substrate” value at ALDH1A1 is given as “substrate”. Also, at ALDH1A3, the IC50 stood at 236 nM. At ALDH2, the remaining activity at 20 µM came out at 89%. Besides, the “ALDH1A2: compound is a substrate” value on ALDH1A2 is on record as “substrate”.
In the case of `Cc1ccccc1-n1c(NCc2cccc(F)c2)nc2[nH]ncc2c1=O` [Example 22, 6-((3-fluorobenzyl)amino)-5-(o-tolyl)-1H-pyrazolo[3,4-d]pyrimidin-4(5H)-one], the remaining activity at 20 µM stood at 61% on ALDH1A1, 90% on ALDH1A3, 96% at ALDH2 and 96% at ALDH1A2.
Consider `Cn1ncc2c(=O)n(-c3ccccc3)c(COCc3cccc(F)c3)nc21` [Example 50, 6-(((3-fluorobenzyl)oxy)methyl)-1-methyl-5-phenyl-1H-pyrazolo[3,4-d]pyrimidin-4(5H)-one], for which the remaining activity at 20 µM on ALDH1A1 was 15%; on ALDH1A3 it was 37%; at ALDH2, 101%; on ALDH1A2, 52%.
As for `Cn1ncc2c(=O)n(-c3ccccc3)c(SCc3cccc(C#N)c3)nc21` [Example 53, 3-(((1-methyl-4-oxo-5-phenyl-4,5-dihydro-1H-pyrazolo[3,4-d]pyrimidin-6-yl)thio)methyl)benzonitrile], the remaining activity at 20 µM at ALDH1A1 turned out to be 24%; at ALDH1A3, 32%; on ALDH2 it was 95%; on ALDH1A2 it was 30%.
In the same order, the values of `CC(Sc1nc2nn(C3COC3)cc2c(=O)n1-c1ccccc1)c1ccccc1` (stereo not shown) [Example 74, 2-(oxetan-3-yl)-5-phenyl-6-((1-phenylethyl)thio)-2H-pyrazolo[3,4-d]pyrimidin-4(5H)-one] are 3%, 0%, 96% and 0%.
In the case of `Cn1ncc2c(=O)n(-c3ccccc3)c(COc3cccc(F)c3)nc21` [Example 25, 6-((3-fluorophenoxy)methyl)-1-methyl-5-phenyl-1H-pyrazolo[3,4-d]pyrimidin-4(5H)-one], the remaining activity at 20 µM on ALDH1A1 was found to be 24%; on ALDH1A3, 83%; on ALDH2, 101%; at ALDH1A2, 65%.
Consider `Cc1ccccc1-n1c(NCCc2cccc(F)c2)nc2c(cnn2C)c1=O` [Example 23, 6-((3-fluorophenethyl)amino)-1-methyl-5-(o-tolyl)-1H-pyrazolo[3,4-d]pyrimidin-4(5H)-one], for which the remaining activity at 20 µM on ALDH1A1 was 66%; at ALDH1A3 it was 100%; on ALDH2, 94%; at ALDH1A2, 68%.
As to `Cn1ncc2c(=O)n(-c3ccccc3)c(SCc3ccccc3)nc21` [Example 55, 6-(benzylthio)-1-methyl-5-phenyl-1H-pyrazolo[3,4-d]pyrimidin-4(5H)-one], the IC50 at ALDH1A1 stood at 387 nM; on ALDH1A3, 203 nM; on ALDH1A2, 139 nM. In addition, at ALDH2, the remaining activity at 20 µM turned out to be 91%.
For the molecule `CCn1cc2c(=O)n(-c3ccccc3C)c(SCc3cccc(F)c3)nc2n1` [Example 6, 2-ethyl-6-((3-fluorobenzyl)thio)-5-(o-tolyl)-2H-pyrazolo[3,4-d]pyrimidin-4(5H)-one], the IC50 turned out to be 400 nM on ALDH1A1, 7500 nM on ALDH1A3 and 5200 nM at ALDH1A2. Besides, the remaining activity at 20 µM at ALDH2 was determined as 91%.
`Cn1ncc2c(=O)n(-c3ccccc3)c(SCc3cccc(C=O)c3)nc21` [Example 58, 3-(((1-methyl-4-oxo-5-phenyl-4,5-dihydro-1H-pyrazolo[3,4-d]pyrimidin-6-yl)thio)methyl)benzaldehyde]: the “ALDH1A1: compound is a substrate” value on ALDH1A1 was “substrate”. The IC50 is 764 nM at ALDH1A3 and 3400 nM on ALDH1A2. Besides, the remaining activity at 20 µM at ALDH2 came out at 102%. In addition, on ALDH1A2, the “ALDH1A2: compound is a substrate” value is listed as “(slow”.
As to `CCn1ncc2c(=O)n(-c3ccccc3C)c(SCc3cccc(F)c3)nc21` [Example 5, 1-ethyl-6-((3-fluorobenzyl)thio)-5-(o-tolyl)-1H-pyrazolo[3,4-d]pyrimidin-4(5H)-one], the IC50 at ALDH1A1 is 350 nM; at ALDH1A3 it was > 10000 nM; on ALDH1A2 it was 15000 nM. Moreover, at ALDH2, the remaining activity at 20 µM came to 93%.
Turning to `Cn1ncc2c(=O)n(-c3ccccc3)c(SC3CCCC3=O)nc21` (stereo not shown) [Example 75, 1-methyl-6-((2-oxocyclopentyl)thio)-5-phenyl-1H-pyrazolo[3,4-d]pyrimidin-4(5H)-one], the remaining activity at 20 µM on ALDH1A1 turned out to be 23%; on ALDH1A3, 64%; on ALDH2, 95%; at ALDH1A2, 46%.

In general, IC50 refers to the concentration needed to halve the response being measured.
